US7696194B2, “Visual function disorder improving agents” (Senju Pharmaceutical Co., Ltd., priority 2001, dated 2010)
Counter-ions that a name gives are not always drawn.

Tests used:
retinal ganglion cell [1] = assay: In vitro axon length of cultured retinal ganglion cells, Calcein AM image analysis (Example 5); type: cell-based, Wistar rats; details: 10 μM final concentration, N=3; for proportion of long neurites cells (axon not less than 100 μm) relative to the whole cells: control group 7%; for proportion of middle neurites cells (axon 21 μm-99 μm) relative to the whole cells: control group 12%
Method: In the same manner as in Examples 1 and 3, retinal ganglion cells isolated from the eye ball of 6 to 8-day-old Wistar rats (male-female mixture, SLC) were cultured (cell count: ca. 2000 cells/well). The test compounds (compounds 3-5) were added to the culture solution to the final concentration of 10 μM and respectively used as compound 3 addition group, compound 4 addition group and compound 5 addition group. The control was a test compound non-addition group. The compound 3 (4-[2-(2,3,4,5,6-pentafluorophenyl)acryloyl]cinnamic acid) was synthesized according to the description of Example 8 of JP-A-2000-44513 and used. As compound 4 (ethacrynic acid), one made by Sigma was used and as compound 5 (fasudil hydrochloride), a commercially-available fasudil hydrochloride hydrate injection: “Eril® Injection 30 mg” (produced and sold by Asahi Kasei Corporation) was used.
Using LIVE/DEAD® Viability/Cytotoxicity Kit (L-3224)(Molecular probes) and utilizing the fluorescence characteristics of viable cells by Calcein AM, Calcein AM was uptaken into the retinal ganglion cells and the level of extension of nerve axon of a retinal ganglion cell was observed under a fluorescence microscope. The images of the retinal extension samples observed under a microscope were directly imported into computer images from the fluorescence microscope and the length of the nerve axon was measured using an image analyzing soft (MacSCOP, MITANI CO.). The cells having an axon of not less than 100 μm in length were taken as long neurites cells, the cells having an axon of 21 μm-99 μm were taken as middle neurites cells, and the cells having an axon of not more than 20 μm in length were taken as short neurites cells (no axonal extension). The proportion (%) of the long neurites cells and middle neurites cells relative to the whole cells was calculated for each.

retinal ganglion cell [2] = assay: In vitro extension of nerve axon of cultured retinal ganglion cells (Example 3); type: cell-based, Wistar rat
Method: Retinal ganglion cells were isolated from an eye ball of a Wistar rat and cultured in a 48 well plate coated with polylysine (50 μg/mL, Sigma) and merosin (2 μg/mL, GIBGO) at 37° C. under the environment of 5% CO2, 95% air. The number of cells was about 5000 cells/well. The culture solution was a culture solution (FCS-free culture solution) of Neurobasal Medium (GIBCO) supplemented with 50 ng/mL BDNF (human brain-derived neurotrophic factor, Sigma), 50 ng/mL CNTF (rat cilliary neurotrophic factor, Sigma), 5 μM forskolin (Sigma), 1 mM glutamine (Wako) and B27 Supplement (GIBCO; 1 mL/50 mL culture solution). After culture for 24 hrs in a culture solution of the aforementioned FCS-free culture solution supplemented with 10% FCS (FCS-supplemented culture solution containing Rho activator) and an FCS-free culture solution, the group cultured in the FCS-free culture solution was divided into 2 groups, and one of them was used as a compound 2 addition group with the addition of 10 μM of compound 2, and the other was used as a compound 2 non-addition group. After further culture for 24 hrs, the level of extension of nerve axon of a retinal ganglion cell was observed under an inverted light microscope. In addition, 1 μM lysophosphatidic acid (LPA), which is a Rho activator, was added to an FCS-free group and axon retraction due to Rho activation was also examined.

optic nerve cell [3] = assay: In vivo optic nerve cell regeneration after optic nerve cut and sciatic nerve autograft (Example 4); design: species or system SD rats; details: for regenerated optic nerve cell count relative to the control group: control = physiological saline; for regenerated optic nerve cell count relative to the normal group: 5 μL into the vitreous body, 6 weeks after grafting
Method: The optic nerve of SD rats weighing 220-280 g was cut under pentobarbital sodium (0.4 mg/kg, i.p.) anesthesia. Separately, the sciatic nerve of the optic nerve-severed rat was taken out in about 3-4 cm and autografted at an end of the optic nerve, which had been cut-earlier. The compound 2 dissolved to 120 μM was injected into the vitreous body by 5 μL immediately before cutting the optic nerve, and gelatin pieces (3 mm×3 mm; Spongel, Yamanouchi Pharm.) immersed in a 10 μM solution of compound 2 were embedded around the autograft (compound 2 treatment group—1). For compound 2 treatment group—2, the compound 2 dissolved to 1.2 mM was injected into the vitreous body by 5 μL and 100 μM of compound 2 was used around the graft. In the control group, physiological saline was used instead of compound 2. During the grafting, attention was paid to avoid damage to the ophthalmic artery, and after grafting, the retinal vascular network was confirmed with a funduscope before breeding under a temperature 23° C.±2, humidity-55±10% environment. The rats were allowed to have a free access to a feed and water. After 6 weeks from the grafting operation, the graft was transversely cut under pentobarbital sodium (0.4 mg/kg, i.p.) anesthesia, and 4-Di-10ASP [4-(4-didecylaminostyryl)-N-methyl-propidium iodide, Sigma, St. Louis, Mo.] crystal (ca. 2 mg) was embedded in the cut area of the graft, thereby to retrogradely label retinal ganglion cells. […]. The images of the retinal extension samples observed under a microscope were directly imported into computer images from the fluorescence microscope and the retrogradely labeled retinal ganglion cells were counted using an image analyzing soft (MacSCOP, MITANI CO.) (FIG. 4). The obtained number of the retrogradely labeled retinal ganglion cells was taken as indicating the regenerated optic nerve cells. Meanwhile, the optic nerve of the rat free of grafting was cut, 4-Di-10ASP crystal (ca. 2 mg) was embedded similarly, and the number of the labeled retinal ganglion cells of the retinal extension sample was taken as the number of optic nerve cells of the normal group.
The ratios (%) of the regenerated optic nerve cell counts of the control group, compound 2 treatment group—1 and compound 2 treatment group—2, relative to the optical nerve cell counts of the control, were calculated.

retinal ganglion cell [4] = assay: In vitro extension of nerve axon of cultured retinal ganglion cells (Example 1); type: cell-based, Wistar rat; details: then 10 μM compound added, further 24 hrs
Method: Retinal ganglion cells were isolated from an eye ball of a Wistar rat, and cultured in a 48 well plate coated with polylysin (50 μg/mL, Sigma) and merosin (2 μg/mL, GIBCO) at 37° C. under the environment of 5% CO2, 95% air. The number of the cells was about 5000 cells/well. The culture solutions were a culture solution (fetal calf serum-free culture solution) of Neurobasal Medium (GIBCO) supplemented with 50 ng/mL BDNF (human brain-derived neurotrophic factor, Sigma), 50 ng/mL CNTF (rat cilliary neurotrophic factor, Sigma), 5 μM forskolin (Sigma), 1 mM glutamine (Wako) and B27 Supplement (GIBCO; 1 mL/50 mL culture solution), and a culture solution (FCS supplemented culture solution) of the aforementioned fetal calf serum-free culture solution supplemented with 10% fetal calf serum (hereinafter to be also referred to as FCS). After culture for 24 hrs in each culture solution, the group cultured in the FCS supplemented culture solution was divided into 2 groups, and one of them was used as a compound 1 addition group with the addition of 10 μM of compound 1, and the other was used as a compound 1 non-addition group. Similarly, the group cultured in the FCS-free culture solution was divided into a compound 1 addition group and a compound 1 non-addition group. […]

optic nerve cell [5] = assay: In vivo optic nerve cell regeneration after optic nerve cut and sciatic nerve autograft (Example 2); design: species or system SD rats; details: 120 μmol/L, 5 μL into the vitreous body plus gelatin pieces with 10 μmol/L around the autograft, 6 weeks after grafting
Method: The optic nerve of SD rats weighing 220-280 g was cut under pentobarbital sodium (0.4 mg/kg, i.p.) anesthesia. Separately, the sciatic nerve of the optic nerve-severed rat was taken out in about 3-4 cm and autografted at an end of the optic nerve, which had been cut earlier. The compound 1 dissolved to 120 μmol/L was injected into the vitreous body by 5 μL immediately before cutting the optic nerve, and gelatin pieces (3 mm×3 mm; Spongel, Yamanouchi Pharm.) immersed in a 10 μmol/L solution of compound 1 were embedded around the autograft (compound 1 treatment group). For the non-treatment group, physiological saline was used instead of compound 1 for both the injection into the vitreous body and preparation of the gelatin pieces. […] The images of the retinal extension samples observed under a microscope were directly imported into computer images from the fluorescence microscope and the retrogradedly labeled retinal ganglion cells were counted using an image analyzing soft (MacSCOP, MITANI CO.). […]
The ratios (%) of the regenerated cell counts of the non-treatment group and compound 1 treatment group, relative to the optic nerve cell counts of the control, were calculated.

## C=C(C(=O)c1ccc(C=CC(=O)O)cc1)c1c(F)c(F)c(F)c(F)c1F [compound 3, 4-[2-(2,3,4,5,6-pentafluorophenyl)acryloyl]cinnamic acid]
Retinal ganglion cell [1]
  proportion of long neurites cells (axon not less than 100 μm) relative to the whole cells: 22%
  proportion of middle neurites cells (axon 21 μm-99 μm) relative to the whole cells: 23%

## C[C@@H](N)c1ccc(C(=O)Nc2ccnc3[nH]ccc23)cc1.Cl [compound 2, (R)-(+)-N-(1H-pyrrolo[2,3-b]pyridin-4-yl)-4-(1-aminoethyl)benzamide monohydrochloride]
Retinal ganglion cell [2]; FCS-free culture solution 24 hrs, then 10 μM compound added, further 24 hrs
  level of extension of nerve axon of a retinal ganglion cell: clearly showed an action of extending the nerve axon of the retinal ganglion cell
Optic nerve cell [3]; treatment group-1: 120 μM intravitreal, 10 μM around the autograft
  regenerated optic nerve cell count relative to the control group: about 2.3 times
Optic nerve cell [3]; treatment group-1: 120 μM, 10 μM gelatin pieces around the autograft
  regenerated optic nerve cell count relative to the normal group: about 16%
Optic nerve cell [3]; treatment group-2: 1.2 mM intravitreal, 100 μM around the graft
  regenerated optic nerve cell count relative to the control group: about 4 times
Optic nerve cell [3]; treatment group-2: 1.2 mM, 100 μM around the graft
  regenerated optic nerve cell count relative to the normal group: about 28%

## C[C@@H](N)c1ccc(C(=O)Nc2ccnc3[nH]ccc23)cc1.C[C@@H](N)c1ccc(C(=O)Nc2ccnc3[nH]ccc23)cc1.Cl.Cl.Cl.Cl.O.O.O [compound 1, (R)-(+)-N-(1H-pyrrolo[2,3-b]pyridin-4-yl)-4-(1-aminoethyl)benzamide dihydrochloride 3/2 hydrate]
Retinal ganglion cell [4]; FCS-free culture solution 24 hrs
  level of extension of nerve axon of a retinal ganglion cell: the extension of nerve axon became remarkable
Retinal ganglion cell [4]; FCS-supplemented culture solution 24 hrs, versus non-addition group
  level of extension of nerve axon of a retinal ganglion cell: clearly showed a retinal ganglion cell nerve axon extending action
Optic nerve cell [5]
  regenerated optic nerve cell count relative to the non-treatment group: about 2.4 times
Optic nerve cell [5]; control = rat free of grafting
  regenerated optic nerve cell count relative to the control group: about 12%

## C=C(CC)C(=O)c1ccc(OCC(=O)O)c(Cl)c1Cl [compound 4, ethacrynic acid]
Retinal ganglion cell [1]
  proportion of long neurites cells (axon not less than 100 μm) relative to the whole cells: 11%
  proportion of middle neurites cells (axon 21 μm-99 μm) relative to the whole cells: 45%

## O=S(=O)(c1cccc2cnccc12)N1CCCNCC1 [compound 5, fasudil hydrochloride]
Retinal ganglion cell [1]
  proportion of long neurites cells (axon not less than 100 μm) relative to the whole cells: 15%
  proportion of middle neurites cells (axon 21 μm-99 μm) relative to the whole cells: 53%

## lysophosphatidic acid [LPA, reference compound]
Retinal ganglion cell [2]; FCS-free culture solution 44 hrs, then 1 μM LPA, further 4 hrs
  axon retraction due to Rho activation: axon retraction effect
